From US20150094474A1, “AGRICULTURAL CHEMICALS” (Redx Pharma Ltd., priority 2012, published 2015)

Legend:
barley = assay: Herbicidal bioassay, barley (% necrosis); format: in vivo
Method: (§1) A laboratory bioassay was conducted to screen ten compounds (Fluazifop (25); Ethyl fluazifop (62); five fluazifop analogues: 27, 28, 63, 64 and 65; mesofulfuron (6); and two mesosulfuron analogues: 8 and 61. for activity against Lolium perenne, barley, peas and Chinese cabbage. Compounds were diluted in DMSO. Controls were performed using both DMSO and water.
(§2) Plants were obtained as seeds and were grown to the 2-4 true leaf stage. Plants were grown individually in seed trays. Each plant (in an approximately 3 cm diameter plug) was then detached from the tray for spraying. Environmental conditions were closely monitored and recorded and were within the optimal range of the target species.
(§3) The compounds were screened at a range of six concentrations, eg. 0.05%, 0.01%, 0.005%, 0.001%, 0.0005% and 0.0001%. Treatments will be applied directly onto the plants, using a potter tower.
(§4) One plant of each type will be sprayed using a potter tower. The 4 different types of weeds will be placed in a 10 cm diameter area underneath the potter sprayer and sprayed simultaneously. The growth of the plants and any Phytotoxicity effects will then be assessed at specified growth intervals, according to EPPO guideline PP1/135. Five replicates will be performed for each treatment, for each species.

peas = assay: Herbicidal bioassay, peas (% necrosis); format: in vivo
Method: as §1, §2, §3, §4

CC(CO)Oc1ccc(Oc2ccc(C(F)(F)F)cn2)cc1 (stereo not drawn) [Compound 27, 2-[4-[[5-(Trifluoromethyl)-2-pyridyl]oxy]phenoxy]propan-1-ol]
C (less than 50% necrosis): Sum of % necrosis in barley (barley; Dose 0.000001, Day 0) | Sum of % necrosis in barley (barley; Dose 0.000001, Day 3) | Sum of % necrosis in barley (barley; Dose 0.000001, Day 7) | Sum of % necrosis in barley (barley; Dose 0.000001, Day 10) | Sum of % necrosis in barley (barley; Dose 0.000001, Day 14) | Sum of % necrosis in barley (barley; Dose 0.000001, Day 21) | Sum of % necrosis in barley (barley; Dose 0.000005, Day 0) | Sum of % necrosis in barley (barley; Dose 0.000005, Day 3) | Sum of % necrosis in barley (barley; Dose 0.000005, Day 7) | Sum of % necrosis in barley (barley; Dose 0.000005, Day 10) | Sum of % necrosis in barley (barley; Dose 0.000005, Day 14) | Sum of % necrosis in barley (barley; Dose 0.000005, Day 21) | Sum of % necrosis in barley (barley; Dose 0.00001, Day 0) | Sum of % necrosis in barley (barley; Dose 0.00001, Day 3) | Sum of % necrosis in barley (barley; Dose 0.00001, Day 7) | Sum of % necrosis in barley (barley; Dose 0.00001, Day 10) | Sum of % necrosis in barley (barley; Dose 0.00001, Day 14) | Sum of % necrosis in barley (barley; Dose 0.00001, Day 21) | Sum of % necrosis in barley (barley; Dose 0.00005, Day 0) | Sum of % necrosis in barley (barley; Dose 0.00005, Day 3) | Sum of % necrosis in barley (barley; Dose 0.00005, Day 7) | Sum of % necrosis in barley (barley; Dose 0.00005, Day 10) | Sum of % necrosis in barley (barley; Dose 0.00005, Day 14) | Sum of % necrosis in barley (barley; Dose 0.00005, Day 21) | Sum of % necrosis in barley (barley; Dose 0.0001, Day 0) | Sum of % necrosis in barley (barley; Dose 0.0001, Day 3) | Sum of % necrosis in barley (barley; Dose 0.0001, Day 7) | Sum of % necrosis in barley (barley; Dose 0.0001, Day 10) | Sum of % necrosis in barley (barley; Dose 0.0001, Day 14) | Sum of % necrosis in barley (barley; Dose 0.0001, Day 21) | Sum of % necrosis in barley (barley; Dose 0.0005, Day 0) | Sum of % necrosis in barley (barley; Dose 0.0005, Day 3) | Sum of % necrosis in barley (barley; Dose 0.0005, Day 7) | Sum of % necrosis in barley (barley; Dose 0.0005, Day 10) | Sum of % necrosis in barley (barley; Dose 0.0005, Day 14) | Sum of % necrosis in barley (barley; Dose 0.0005, Day 21) | Sum of % necrosis in Peas (peas; Dose 0.000001, Day 0) | Sum of % necrosis in Peas (peas; Dose 0.000001, Day 1) | Sum of % necrosis in Peas (peas; Dose 0.000001, Day 3) | Sum of % necrosis in Peas (peas; Dose 0.000001, Day 7) | Sum of % necrosis in Peas (peas; Dose 0.000001, Day 10) | Sum of % necrosis in Peas (peas; Dose 0.000001, Day 14) | Sum of % necrosis in Peas (peas; Dose 0.000001, Day 21) | Sum of % necrosis in Peas (peas; Dose 0.000005, Day 0) | Sum of % necrosis in Peas (peas; Dose 0.000005, Day 1) | Sum of % necrosis in Peas (peas; Dose 0.000005, Day 3) | Sum of % necrosis in Peas (peas; Dose 0.000005, Day 7) | Sum of % necrosis in Peas (peas; Dose 0.000005, Day 10) | Sum of % necrosis in Peas (peas; Dose 0.000005, Day 14) | Sum of % necrosis in Peas (peas; Dose 0.000005, Day 21) | Sum of % necrosis in Peas (peas; Dose 0.00001, Day 0) | Sum of % necrosis in Peas (peas; Dose 0.00001, Day 1) | Sum of % necrosis in Peas (peas; Dose 0.00001, Day 3) | Sum of % necrosis in Peas (peas; Dose 0.00001, Day 7) | Sum of % necrosis in Peas (peas; Dose 0.00001, Day 10) | Sum of % necrosis in Peas (peas; Dose 0.00001, Day 14) | Sum of % necrosis in Peas (peas; Dose 0.00001, Day 21) | Sum of % necrosis in Peas (peas; Dose 0.00005, Day 0) | Sum of % necrosis in Peas (peas; Dose 0.00005, Day 1) | Sum of % necrosis in Peas (peas; Dose 0.00005, Day 3) | Sum of % necrosis in Peas (peas; Dose 0.00005, Day 7) | Sum of % necrosis in Peas (peas; Dose 0.00005, Day 10) | Sum of % necrosis in Peas (peas; Dose 0.00005, Day 14) | Sum of % necrosis in Peas (peas; Dose 0.00005, Day 21) | Sum of % necrosis in Peas (peas; Dose 0.0001, Day 0) | Sum of % necrosis in Peas (peas; Dose 0.0001, Day 1) | Sum of % necrosis in Peas (peas; Dose 0.0001, Day 3) | Sum of % necrosis in Peas (peas; Dose 0.0001, Day 7) | Sum of % necrosis in Peas (peas; Dose 0.0001, Day 10) | Sum of % necrosis in Peas (peas; Dose 0.0001, Day 14) | Sum of % necrosis in Peas (peas; Dose 0.0001, Day 21) | Sum of % necrosis in Peas (peas; Dose 0.0005, Day 0) | Sum of % necrosis in Peas (peas; Dose 0.0005, Day 1) | Sum of % necrosis in Peas (peas; Dose 0.0005, Day 3) | Sum of % necrosis in Peas (peas; Dose 0.0005, Day 7) | Sum of % necrosis in Peas (peas; Dose 0.0005, Day 10) | Sum of % necrosis in Peas (peas; Dose 0.0005, Day 14) | Sum of % necrosis in Peas (peas; Dose 0.0005, Day 21)
